Results published in PubChem BioAssay AID489011 (The Scripps Research Institute Molecular Screening Center, 2010).
The source made the active and inactive calls.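 Rule for the calls: active = IC50 for blocking malaria parasite growth in red cells at or below 10 µM; inactive = the rest.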

Tested on: P. falciparum 3D7 in RBCs, 3H-hypoxanthine incorporation, 48 h
Experiment: antimalarial activity in infected erythrocytes – cell-based, radiolabel, RBCs, powder samples, M18AAP inhibitor project, late-stage follow-up (AID 489011)

Structure (SMILES)	IC50
Oc1ccc(CCNc2c3ccccc3nc3ccccc23)cc1O	< 1.6 µM
Oc1ccc(-c2csc(-c3ccccc3)n2)cc1O	> 25 µM (inactive)
Br/C(C=Nn1cnnc1)=C\c1ccccc1	11 µM (inactive)
O=C(COc1ccccc1C(=O)N/N=C/c1ccc(O)c(O)c1)N/N=C/c1ccc(O)c(O)c1	6 µM
CCC(C)c1ccc(O)c(N)c1 (configuration not stated)	6 µM
Cc1cc(C)n2c(=S)[nH]nc2n1	> 25 µM (inactive)
Cc1cc(C)cc(C(=O)n2cnnc2N)c1	7 µM
